IC50 data for 25 compounds are collected here from patent publication US9533977B2, “Oxazolidinone derivative as CETP inhibitor, its preparation method, and pharmaceutical composition comprising the same” (DONG-A ST CO., LTD., priority 2013, dated 2017).

Molecules are shown by their SMILES.

The target of the assay is T1, CETP (Homo sapiens, UniProt P11597).
T1 construct: from tissue; host or cells: human plasma from healthy men
T1 sequence (P11597 18-493): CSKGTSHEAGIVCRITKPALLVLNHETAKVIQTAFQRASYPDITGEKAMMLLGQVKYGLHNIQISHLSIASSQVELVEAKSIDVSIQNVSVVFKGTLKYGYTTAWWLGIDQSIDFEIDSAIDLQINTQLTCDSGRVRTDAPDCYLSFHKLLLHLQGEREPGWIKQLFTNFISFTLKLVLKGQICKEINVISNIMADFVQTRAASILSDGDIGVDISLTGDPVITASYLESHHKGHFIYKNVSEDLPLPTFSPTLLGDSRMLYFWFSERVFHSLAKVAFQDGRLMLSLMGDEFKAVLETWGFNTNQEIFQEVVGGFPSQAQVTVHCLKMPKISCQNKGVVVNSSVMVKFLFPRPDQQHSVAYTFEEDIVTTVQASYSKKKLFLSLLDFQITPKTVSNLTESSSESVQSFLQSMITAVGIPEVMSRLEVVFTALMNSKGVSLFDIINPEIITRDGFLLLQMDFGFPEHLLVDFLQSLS
In words: Inhibitory activity against CETP in human plasma (Roar CETP activity kit, fluorescence). In kind it is biochemical. Conditions: plasma from healthy men diluted 1:10 in assay buffer, 37° C., 3 hrs, fluorescence 465/535 nm; read-out: IC50, Inhibition of CETP Activity in Human Plasma. The essentials:
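Healthy male human plasma, diluted 1:10, incubated 3 hrs at 37° C with donor/acceptor fluorescent substrates and compound (0.01–10000 nM, DMSO). Fluorescence at ex 465/em 535 nm, background-corrected against no-plasma and no-compound wells; IC50 from sigmoidal fit.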
`CCN(c1ncc(N2CCCC2)cc1CN1C(=O)O[C@H](c2cc(C(F)(F)F)cc(C(F)(F)F)c2)[C@@H]1C)C1CCOCC1` [Example 41, (4S,5R)-5-[3,5-bis(trifluoromethyl)phenyl]-4-methyl-3-({[2-(ethyl)(tetrahydro-2H-pyran-4-yl)amino]-5-(pyrrolidin-1-yl)pyridin-3-yl}methyl)-oxazolidin-2-one]: the IC50 amounted to 0.0024 µM.
Then `CCN(c1ncc(-c2ccc(C)s2)cc1CN1C(=O)O[C@H](c2cc(C(F)(F)F)cc(C(F)(F)F)c2)[C@@H]1C)C1CCCCC1` [Example 79, (4S,5R)-5-[3,5-bis(trifluoromethyl)phenyl]-4-methyl-3-({[2-(ethyl)(cyclohexyl)amino]-5-(2-methyl-thiophen-5-yl)pyridin-3-yl}methyl)-oxazolidin-2-one], with 0.0243 µM; and `CCN(c1ncc(-c2c(C)nn(C)c2C)cc1CN1C(=O)O[C@H](c2cc(C(F)(F)F)cc(C(F)(F)F)c2)[C@@H]1C)C1CCCCC1` [Example 64, (4S,5R)-5-[3,5-bis(trifluoromethyl)phenyl]-3-({[2-(ethyl)(cyclohexyl)amino]-5-(1,3,5-trimethyl-1H-pyrazol-4-yl}pyridin-3-yl}methyl)-oxazolidin-2-one], with 0.0293 µM.
As to `CCN(C[C@H]1CC[C@H](CC(=O)O)CC1)c1ncc(-c2ccccc2)nc1CN1C(=O)OC(c2cc(C(F)(F)F)cc(C(F)(F)F)c2)[C@@H]1C` (stereo partly shown) [Example 116], the half-inhibitory concentration (IC50) amounted to 0.00629 µM.
Then `Cc1noc(C)c1-c1cnc(N2CCCC(C(F)(F)F)C2)c(CN2C(=O)O[C@@H](c3cc(C(F)(F)F)cc(C(F)(F)F)c3)[C@@H]2C)n1` (stereo partly drawn) [Example 100, (4S,5S)-5-[3,5-bis(trifluoromethyl)phenyl]-3-{[6-(3,5-dimethylisoxazol-4-yl)-3-[3-(trifluoromethyl)piperidin-1-yl]pyrazin-2-yl]methyl}-4-methyloxazolidin-2-one], with 0.0156 µM; and `Cc1noc(C)c1-c1cnc(N(C)C[C@H]2CC[C@H](CC(=O)O)CC2)c(CN2C(=O)OC(c3cc(C(F)(F)F)cc(C(F)(F)F)c3)[C@@H]2C)n1` (stereo partly shown) [Example 126], with 0.017 µM; and `CCN(C[C@H]1CC[C@H](CC(=O)O)CC1)c1ncc(-c2sccc2C)nc1CN1C(=O)OC(c2cc(C(F)(F)F)cc(C(F)(F)F)c2)[C@@H]1C` (stereo partly shown) [Example 111], with 0.00311 µM.
Then `CCCCN(c1ncc(C(F)(F)F)cc1CN1C(=O)O[C@H](c2cc(C(F)(F)F)cc(C(F)(F)F)c2)[C@@H]1C)C1CCOCC1` [Example 9, (4S,5R)-5-[3,5-bis(trifluoromethyl)phenyl]-4-methyl-3-({[2-(butyl)(tetrahydro-2H-pyran-4-yl)amino]-5-(trifluoromethyl)pyridin-3-yl}methyl)-oxazolidin-2-one], with 0.068 µM; and `CCN(c1ncc(-c2c(C)n[nH]c2C)cc1CN1C(=O)O[C@H](c2cc(C(F)(F)F)cc(C(F)(F)F)c2)[C@@H]1C)C1CCCCC1` [Example 65, (4S,5R)-5-[3,5-bis(trifluoromethyl)phenyl]-4-methyl-3-({[2-(ethyl)(cyclohexyl-4-yl)amino]-5-(3,5-dimethyl-1H-pyrazol-4-yl)pyridin-3-yl}methyl)-oxazolidin-2-one], with 0.224 µM.
The result for `C[C@H]1[C@@H](c2cc(C(F)(F)F)cc(C(F)(F)F)c2)OC(=O)N1Cc1cc(C(F)(F)F)cnc1N(CC(=O)OC(C)(C)C)C1CCOCC1` [Example 17, t-butyl 2-([3-({(4S,5R)-5-[3,5-bis(trifluoromethyl)phenyl]-4-methyl-2-oxo-oxazolidin-3-yl}methyl)-5-(trifluoromethyl)pyridin-2-yl]-(tetrahydro-2H-pyran-4-yl)amino)-acetate] reads 0.379 µM.
As for `CCN(c1ncc(-c2cc(C)cs2)cc1CN1C(=O)O[C@H](c2cc(C(F)(F)F)cc(C(F)(F)F)c2)[C@@H]1C)C1CCCCC1` [Example 63, (4S,5R)-5-[3,5-bis(trifluoromethyl)phenyl]-4-methyl-3-({[2-(ethyl)(cyclohexyl)amino]-5-(3-methyl-thiophen-5-yl)pyridin-3-yl}methyl)-oxazolidin-2-one], the concentration for half-maximal inhibition (IC50) is 0.0189 µM.
For `CCN(c1ncc(N2CCC(F)(F)C2)cc1CN1C(=O)O[C@H](c2cc(C(F)(F)F)cc(C(F)(F)F)c2)[C@@H]1C)C1CCCCC1` [Example 91, (4S,5R)-5-[3,5-bis(trifluoromethyl)phenyl]-4-methyl-3-({[2-(ethyl)(cyclohexyl)amino]-5-(3,3-difluoro-pyrrolidin-1-yl)pyridin-3-yl}methyl)-oxazolidin-2-one], the IC50 is 0.0267 µM.
On to `CCN(c1ncc(-c2cscn2)cc1CN1C(=O)O[C@H](c2cc(C(F)(F)F)cc(C(F)(F)F)c2)[C@@H]1C)C1CCCCC1` [Example 81, (4S,5R)-5-[3,5-bis(trifluoromethyl)phenyl]-4-methyl-3-({[2-(ethyl)(cyclohexyl)amino]-5-(thiazol-4-yl)pyridin-3-yl}methyl)-oxazolidin-2-one], for which the IC50 was 0.0265 µM.
Then `CCN(C[C@H]1CC[C@H](CC(=O)O)CC1)c1ncc(-c2ccc(C#N)cc2)nc1CN1C(=O)OC(c2cc(C(F)(F)F)cc(C(F)(F)F)c2)[C@@H]1C` (stereo partly shown) [Example 117], with 0.0117 µM; and `CCN(c1ncc(-c2cccs2)cc1CN1C(=O)O[C@H](c2cc(C(F)(F)F)cc(C(F)(F)F)c2)[C@@H]1C)C1CCCCC1` [Example 80, (4S,5R)-5-[3,5-bis(trifluoromethyl)phenyl]-4-methyl-3-({[2-(ethyl)(cyclohexyl)amino]-5-(thiophen-2-yl)pyridin-3-yl}methyl)-oxazolidin-2-one], with 0.022 µM.
Then `C[C@H]1C(c2cc(C(F)(F)F)cc(C(F)(F)F)c2)OC(=O)N1Cc1nc(C2CCCC2)cnc1N(C)C[C@H]1CC[C@H](CC(=O)O)CC1` (stereo partly shown) [Example 129], with 0.034 µM; and `CCNC1CCC(N(CC)c2ncc(C(F)(F)F)cc2CN2C(=O)O[C@H](c3cc(C(F)(F)F)cc(C(F)(F)F)c3)[C@@H]2C)CC1` (stereo partly drawn) [Example 23, (4S,5R)-5-[3,5-bis(trifluoromethyl)phenyl]-4-methyl-3-({[2-(ethyl)(4-ethylaminocyclohexyl)amino]-5-(trifluoromethyl)pyridin-3-yl}methyl)-oxazolidin-2-one], with 0.0444 µM.
On to `Cc1noc(C)c1-c1cnc(N2CCCCC2)c(CN2C(=O)O[C@@H](c3cc(C(F)(F)F)cc(C(F)(F)F)c3)[C@@H]2C)n1` [Example 98, (4S,5S)-5-[3,5-bis(trifluoromethyl)phenyl]-3-{[6-(3,5-dimethylisoxazol-4-yl)-3-(piperidin-1-yl)pyrazin-2-yl)methyl}-4-methyloxazolidin-2-one], for which the IC50 amounted to 0.00261 µM.
Then `C[C@H]1[C@@H](c2cc(C(F)(F)F)cc(C(F)(F)F)c2)OC(=O)N1Cc1cc(C(F)(F)F)cnc1N(C1CCC1)C1CCOCC1` [Example 11, (4S,5R)-5-[3,5-bis(trifluoromethyl)phenyl]-4-methyl-3-({[2-(cyclobutyl)(tetrahydro-2H-pyran-4-yl)amino]-5-(trifluoro)methylpyridin-3-yl}methyl)-oxazolidin-2-one], with 0.317 µM.
The result for `CCN(c1ncc(-c2cccc(F)c2)cc1CN1C(=O)O[C@H](c2cc(C(F)(F)F)cc(C(F)(F)F)c2)[C@@H]1C)C1CCOCC1` [Example 47, (4S,5R)-5-[3,5-bis(trifluoromethyl)phenyl]-4-methyl-3-({[2-(ethyl)(tetrahydro-2H-pyran-4-yl)amino]-5-(3-fluorophenyl)pyridin-3-yl}methyl)-oxazolidin-2-one] reads 0.045 µM.
As to `CCN(c1ncc(-c2ccco2)cc1CN1C(=O)O[C@H](c2cc(C(F)(F)F)cc(C(F)(F)F)c2)[C@@H]1C)C1CCOCC1` [Example 49, (4S,5R)-5-[3,5-bis(trifluoromethyl)phenyl]-4-methyl-3-({[2-(ethyl)(tetrahydro-2H-pyran-4-yl)amino]-5-(furan-2-yl)pyridin-3-yl}methyl)-oxazolidin-2-one], the IC50 was 0.0237 µM.
Then `CCN(c1ncc(N2CCCCC2)cc1CN1C(=O)O[C@H](c2cc(C(F)(F)F)cc(C(F)(F)F)c2)[C@@H]1C)C1CCOCC1` [Example 44, (4S,5R)-5-[3,5-bis(trifluoromethyl)phenyl]-4-methyl-3-({[2-(ethyl)(tetrahydro-2H-pyran-4-yl)amino]-5-(piperidin-1-yl)pyridin-3-yl}methyl)-oxazolidin-2-one], with 0.057 µM; and `CCN(c1ncc(-c2nnnn2C)cc1CN1C(=O)O[C@H](c2cc(C(F)(F)F)cc(C(F)(F)F)c2)[C@@H]1C)C1CCCCC1` [Example 66, (4S,5R)-5-[3,5-bis(trifluoromethyl)phenyl]-4-methyl-3-({[2-(ethyl)(cyclohexyl)amino]-5-(1-methyl-1H-tetrazol-5-yl)pyridin-3-yl}methyl)-oxazolidin-2-one], with 0.0463 µM.
Then `CCN(c1ncc(C(F)(F)F)cc1CN1C(=O)O[C@H](c2cc(C(F)(F)F)cc(C(F)(F)F)c2)[C@@H]1C)C1CCN(C)CC1` [Example 29, (4S,5R)-5-[3,5-bis(trifluoromethyl)phenyl]-4-methyl-3-({[2-(ethyl)(1-methylpiperidin-4-yl)amino]-5-(trifluoromethyl)pyridin-3-yl}methyl)-oxazolidin-2-one], with 0.54 µM.
The result for `CCN(C[C@H]1CC[C@H](CC(=O)O)CC1)c1ncc(-c2cscn2)nc1CN1C(=O)OC(c2cc(C(F)(F)F)cc(C(F)(F)F)c2)[C@@H]1C` (stereo partly shown) [Example 113] reads 0.016 µM.

The term IC50 denotes the concentration at which inhibition is half-maximal.
